What was measured:
human mGlu2 = target: T1, human mGlu2 (Homo sapiens, UniProt Q14416); assay: Human mGlu2 GIRK thallium flux assay; type: cell-based; details: HEK293 cells, EC80 glutamate, triplicate assays (14g duplicate)
T1 construct: expressed in transfected cells
Procedure: (§1) Cell Line Generation and Thallium Flux Assays. The general procedure for the preparation of human mGlu2 and mGlu3 was described previously, [56] with minor modifications in this work. The cloning sites were NheI/NotI for both receptors. HEK GIRK cells, generously provided by Lily Jan (University of California San Francisco, San Francisco, CA), were transfected with 24 μg of DNA using Fugene6 (Promega), stable transfectants were selected with 1 μg/mL puromycin dihydrochloride (Sigma-Aldrich, St. Louis, MO), and polyclonal human mGlu2 GIRK and mGlu3 GIRK cell lines were established. Cells were maintained following selection in 45% DMEM, 45% Ham's F12, 10% FBS, 100 units/mL penicillin/streptomycin, 20 mM HEPES, pH 7.3, 1 mM sodium pyruvate, 2 mM glutamine, 700 μg/mL G418 (Mediatech, Inc., Herndon, VA), and […] puromycin (growth media) at 37 °C in the presence of 5% CO2. All cell culture reagents were purchased from Invitrogen Corp. (Carlsbad, CA) unless otherwise noted.
(§2) Human mGlu2 and mGlu3 Thallium Flux in Vitro Assays. Potencies of these NAMs at both mGlu2 and mGlu3 were investigated by thallium flux through GIRK channels, which was disclosed in detail as well as described in our previous work. In particular, cells were plated into 384-well, black-walled, clear-bottomed poly(D-lysine_-coated plates at a density of 15 000 cells per well in 20 μL of DMEM containing 10% dialyzed FBS, 20 mM HEPES, and 100 units/mL penicillin/streptomycin (assay media). Plated cells were incubated overnight at 37 °C in the presence of 5% CO2. The next day, the medium was exchanged from the cells to assay buffer [Hanks' balanced salt solution (Invitrogen) containing 20 mM HEPES, pH 7.3] using an ELX405 microplate washer (BioTek), leaving 20 μL per well, followed by the addition of 20 μL per well of FluoZin2-AM (330 nM final concentration) indicator dye (Invitrogen; prepared as a stock in DMSO and mixed in a 1:1 ratio with Pluronic acid F-127) in assay buffer. Cells were incubated for 1 h at room temperature, and the dye was exchanged to assay buffer using an ELX405, leaving 20 μL per well. For concentration-response curve experiments, compounds were serially diluted 1:3 into 10 point concentration-response curves and were transferred to daughter plates using an Echo acoustic plate reformatter (Labcyte, Sunnyvale, CA). Test compounds were diluted to 2 times their final desired concentration in assay buffer (0.3% DMSO final concentration). Agonists were diluted in thallium buffer [125 mM sodium bicarbonate (added fresh the morning of the experiment), 1 mM magnesium sulfate, 1.8 mM calcium sulfate, 5 mM glucose, 12 mM thallium sulfate, and 10 mM HEPES, pH 7.3] at 5 times the final concentration to be assayed. Cell plates and compound plates were loaded onto a kinetic imaging plate reader (FDSS 6000 or 7000; Hamamatsu Corporation, Bridgewater, NJ). Appropriate baseline readings were taken (10 images at 1 Hz; excitation, 470 ± 20 nm; emission, 540 ± 30 nm), and test compounds were added in a 20 μL volume and incubated for approximately 1 h at room temperature before the addition of 10 μL of thallium buffer with or without an EC80 concentration of the agonist glutamate for affinity evaluation experiments or with a full concentration-response of glutamate for Schild analysis experiments. After the addition of agonist, data were collected for approximately an additional 2.5 min. Data were analyzed using Excel (Microsoft Corp, Redmond, WA). The slope of the fluorescence increase beginning 5 s after thallium/agonist addition and ending 15 s after thallium/agonist addition was calculated, corrected to vehicle and maximal agonist control slope values, and plotted using either XLfit (ID Business Solutions Ltd.) or Prism software (GraphPad Software, San Diego, CA) to generate concentration-response curves. Potencies were calculated from fits using a four-point parameter logistic equation.

human mGlu3 = target: T2, human mGlu3 (Homo sapiens, UniProt Q14832); assay: Human mGlu3 GIRK thallium flux assay; type: cell-based; details: HEK293 cells, triplicate assays (14g duplicate)
T2 construct: expressed in transfected cells
Procedure: as §1, §2

mGlu2 [1] = target: T3, mGlu2 (Rattus norvegicus, UniProt P31421); assay: Dynamic PET imaging in rat brain; type: in vivo, SD rats; parameters: from tissue; host or cells: brain of living SD rats
Procedure: As we previously reported, PET scans were carried out by an Inveon PET scanner (Siemens Medical Solutions, Knoxville, TN, USA). During the scan, SD rats were anesthetized by oxygen mixed with 1-2% (v/v) isoflurane and kept body temperature at […] by a commercially available circulation system (T/Pump TP401, Gaymar Industries, Orchard Park, NY). A 24-gauge catheter was inserted into the tail vein to facilitate a bolus injection. The radiotracer [^11C]14a or [^11C]14b (ca. 1 mCi / 150-200 μL) was injected into the rat via the preinstalled catheter, and the dynamic acquisition of PET signals in rat brain was started at the same time and lasted for 60 min in 3D list mode. For pretreatment studies, 14a (1 mg/kg for [^11C]14a for self-blocking study in Figure S2; 3 mg/kg for [^11C]14b for blocking study in Figure S12C) or 14b (1 mg/kg for [^11C]14b for self-blocking study in Figure S12B), formulated in 300 μL of saline containing 10% ethanol and 5% Tween 80, was injected at 30 min via the tail vein catheter prior to the injection of [^11C]14a or [^11C]14b. The dynamic emission data were reconstructed by filtered back projection using Hanning's filter with a Nyquist cutoff of 0.5 cycle/pixel into 33 frames (10 s × twelve frames, 20 s × three frames, 30 s × three frames, 60 s × three frames, 150 s × three frames, and 300 s × nine frames). The TACs of [^11C]14a or [^11C]14b were analyzed from volumes of interest in the striatum, hippocampus, cortex, thalamus, pons and cerebellum normalized to a rat brain MRI template using PMOD software (version 3.4; PMOD technology, Zurich, Switzerland). The radioactivity was decay-corrected to the injection time and expressed as the standardized uptake value (SUV) which equals to (radioactivity per milliliter of tissue per injected radioactivity) × (gram of body weight). To obtain non-displaceable binding potential (BPND), simplified reference tissue model (SRTM), [54] was carried out on the basis of kinetic analysis using PMOD software. We acquired BP-parametric images using kinetic modeling without masking. Respective TACs in receptor-rich or -poor region were loaded for production of BP-map with default setting. Representative parametric images scaled with BPND were reconstructed by PMOD software using TACs in mGlu2-enriched and reference regions. Pons was selected as the reference region for mGlu2 (the lowest and consistent brain uptake and washout kinetics between baseline and blocking conditions). It should be noted that while there is a low-level expression of mGlu2 in the pons, it is not without existence. A reference region should be a region devoid of the target, but with similar tracer transport or diffusion to the other regions of interest with expression of the target. Therefore, there are some limitations when using pons as the reference region. For example, the partial volume effect in PET likely leads to spillover of activity from nearby higher uptake regions into the pons, artificially increasing the time-activity curve in the pons.

mGlu2 [2] = target: T3, mGlu2; assay: In vitro autoradiography in rat brain sections; type: binding; parameters: from tissue; host or cells: Sprague-Dawley rat brain sections; details: preincubated with unlabeled QCA, 14b or 14a at 10 µM
Procedure: Sagittal rat brain slices were prepared into 20 μm sections with a cryostat (HM560; Carl Zeiss, Oberkochen, Germany), mounted on air plasma spray-coated glass slides, and stored at -80 °C before used for experiments. The sections were preincubated for 15 min in a glass tank containing 200 mL of Tris·HCl buffer (50 mM, pH 7.4) consisting of 2 mM of MgCl2 and 1.2 mM of CaCl2 at room temperature. After preincubation, the sections were incubated in a fresh buffer containing [^11C]14a or [^11C]14b (250 µCi in 200 mL buffer; molar activity 2.7 Ci/µmol of [^11C]14a and 2.5 Ci/µmol of [^11C]14b, respectively) in the glass tank for 30 min at room temperature. For blocking studies, non-radioactive 14a or 14b (10 μM) and QCA (10 μM) were chosen to determine the specificity of radiotracers for binding mGlu2. Six serial brain sections were used for each conditions. After incubation, brain sections were washed with cold buffer (3 × 5 min), immersed in cold distilled water, and then dried with cold air. The sections were placed in contact with imaging plates (BAS-MS2025, FUJIFILM, Tokyo, Japan). Autoradiograms were obtained and photostimulated luminescence (PSL) values in the ROIs were measured using a Bio-Imaging Analyzer System (BAS5000, FUJIFILM).

mGlu2 [3] = details: cited from earlier work

T2 sequence (Q14832 23-879): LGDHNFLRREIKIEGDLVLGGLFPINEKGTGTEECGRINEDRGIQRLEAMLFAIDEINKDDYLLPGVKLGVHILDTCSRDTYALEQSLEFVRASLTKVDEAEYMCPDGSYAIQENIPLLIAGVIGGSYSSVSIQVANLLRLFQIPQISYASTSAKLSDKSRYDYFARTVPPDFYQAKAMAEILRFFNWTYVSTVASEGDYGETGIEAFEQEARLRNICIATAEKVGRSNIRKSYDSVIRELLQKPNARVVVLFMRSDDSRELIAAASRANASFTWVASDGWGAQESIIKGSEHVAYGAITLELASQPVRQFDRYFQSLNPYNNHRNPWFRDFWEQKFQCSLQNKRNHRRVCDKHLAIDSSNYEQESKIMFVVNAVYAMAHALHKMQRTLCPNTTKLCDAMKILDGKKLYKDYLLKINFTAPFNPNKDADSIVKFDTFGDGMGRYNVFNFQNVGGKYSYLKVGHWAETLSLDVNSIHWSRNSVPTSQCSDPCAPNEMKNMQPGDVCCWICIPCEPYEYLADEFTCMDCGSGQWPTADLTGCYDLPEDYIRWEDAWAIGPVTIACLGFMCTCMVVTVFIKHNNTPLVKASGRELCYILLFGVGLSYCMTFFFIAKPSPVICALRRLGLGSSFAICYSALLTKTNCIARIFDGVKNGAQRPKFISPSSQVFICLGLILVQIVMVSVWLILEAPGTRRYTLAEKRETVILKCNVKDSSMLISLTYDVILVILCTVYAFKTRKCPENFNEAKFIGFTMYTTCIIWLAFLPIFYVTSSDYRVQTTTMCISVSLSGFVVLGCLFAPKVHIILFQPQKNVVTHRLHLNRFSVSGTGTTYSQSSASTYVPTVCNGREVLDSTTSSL
T3 sequence (P31421 19-872): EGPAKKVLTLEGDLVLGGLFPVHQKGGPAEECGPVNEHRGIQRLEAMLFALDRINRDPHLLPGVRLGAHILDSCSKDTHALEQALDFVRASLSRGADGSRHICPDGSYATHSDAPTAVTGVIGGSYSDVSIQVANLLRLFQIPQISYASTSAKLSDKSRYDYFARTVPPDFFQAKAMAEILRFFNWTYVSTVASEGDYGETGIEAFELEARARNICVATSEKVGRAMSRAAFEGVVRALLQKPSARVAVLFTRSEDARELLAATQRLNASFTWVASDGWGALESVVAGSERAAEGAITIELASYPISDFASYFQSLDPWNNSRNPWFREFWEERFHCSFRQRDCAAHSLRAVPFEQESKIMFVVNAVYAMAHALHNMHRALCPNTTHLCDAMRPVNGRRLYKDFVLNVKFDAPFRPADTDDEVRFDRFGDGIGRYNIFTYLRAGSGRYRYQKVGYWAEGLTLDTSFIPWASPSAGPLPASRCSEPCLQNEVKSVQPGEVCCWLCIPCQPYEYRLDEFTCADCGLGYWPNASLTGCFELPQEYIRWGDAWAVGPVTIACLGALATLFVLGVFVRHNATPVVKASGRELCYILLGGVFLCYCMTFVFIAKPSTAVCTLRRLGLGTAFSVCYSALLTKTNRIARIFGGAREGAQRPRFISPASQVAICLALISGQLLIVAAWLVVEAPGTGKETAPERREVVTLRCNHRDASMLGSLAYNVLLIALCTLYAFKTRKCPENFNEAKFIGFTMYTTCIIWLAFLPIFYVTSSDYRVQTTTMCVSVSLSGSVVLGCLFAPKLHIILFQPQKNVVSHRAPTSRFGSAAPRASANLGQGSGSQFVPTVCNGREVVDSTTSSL
T1 sequence (Q14416 19-872): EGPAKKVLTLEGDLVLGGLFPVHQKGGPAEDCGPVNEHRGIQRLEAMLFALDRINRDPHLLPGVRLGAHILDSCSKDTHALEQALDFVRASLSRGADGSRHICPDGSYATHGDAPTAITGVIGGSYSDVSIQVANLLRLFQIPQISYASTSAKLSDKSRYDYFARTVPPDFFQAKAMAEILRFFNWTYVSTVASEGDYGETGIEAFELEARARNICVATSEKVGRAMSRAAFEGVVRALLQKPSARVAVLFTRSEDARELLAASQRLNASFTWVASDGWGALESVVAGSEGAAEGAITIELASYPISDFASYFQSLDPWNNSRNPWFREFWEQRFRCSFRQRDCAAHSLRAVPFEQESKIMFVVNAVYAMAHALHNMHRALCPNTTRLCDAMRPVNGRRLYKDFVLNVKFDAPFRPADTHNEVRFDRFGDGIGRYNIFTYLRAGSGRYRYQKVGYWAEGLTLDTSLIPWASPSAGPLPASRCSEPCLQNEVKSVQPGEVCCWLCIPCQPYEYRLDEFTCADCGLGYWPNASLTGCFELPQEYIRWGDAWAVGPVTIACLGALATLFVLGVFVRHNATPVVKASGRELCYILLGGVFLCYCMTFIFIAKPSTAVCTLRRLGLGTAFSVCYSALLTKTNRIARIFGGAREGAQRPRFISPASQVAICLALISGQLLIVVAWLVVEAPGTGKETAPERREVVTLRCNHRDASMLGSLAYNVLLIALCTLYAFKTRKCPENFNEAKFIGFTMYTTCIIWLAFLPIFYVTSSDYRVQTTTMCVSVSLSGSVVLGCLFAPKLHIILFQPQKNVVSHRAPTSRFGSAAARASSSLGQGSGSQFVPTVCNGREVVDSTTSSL

`COc1ccc(-c2cc(C(N)=O)nc3c2CCN(Cc2ccnc(OC)c2)C3)c(F)c1` [14a, 4-(2-fluoro-4-methoxyphenyl)-7-((2-methoxypyridin-4-yl)methyl)-5,6,7,8-tetrahydro-1,7-naphthyridine-2-carboxamide] gave an IC50 (human mGlu2) of 39 nM and an IC50 (human mGlu3) greater than 10 µM.
`COc1cc(CN2CCc3c(-c4ccc(C)cc4F)cc(C(N)=O)nc3C2)ccn1` [14c, 4-(2-fluoro-4-methyphenyl)-7-((2-methoxypyridin-4-yl)methyl)-5,6,7,8-tetrahydro-1,7-naphthyridine-2-carboxamide] showed an IC50 (human mGlu2) of 129 nM and an IC50 (human mGlu3) greater than 10 µM.
`COc1cc(CN2CCc3c(-c4ccc(F)cc4OC)cc(C(N)=O)nc3C2)ccn1` [14d, 4-(4-fluoro-2-methoxyphenyl)-7-((2-methoxypyridin-4-yl)methyl)-5,6,7,8-tetrahydro-1,7-naphthyridine-2-carboxamide] showed an IC50 (human mGlu2) of 39 nM and an IC50 (human mGlu3) greater than 10 µM.
With `COc1ncc(CN2CCc3c(-c4ccc(C)cc4F)cc(C(N)=O)nc3C2)cn1` [14e, 4-(2-fluoro-4-methyphenyl)-7-((2-methoxypyrimidin-5-yl)methyl)-5,6,7,8-tetrahydro-1,7-naphthyridine-2-carboxamide] the IC50 (human mGlu2) was 106 nM and the IC50 (human mGlu3) was greater than 10 µM.
Work on `COc1ccc(-c2cc(C(N)=O)nc3c2CCN(Cc2cnc(OC)nc2)C3)c(F)c1` [14f, 4-(2-fluoro-4-methoxyphenyl)-7-((2-methoxypyrimidin-5-yl)methyl)-5,6,7,8-tetrahydro-1,7-naphthyridine-2-carboxamide] yielded an IC50 (human mGlu2) of 318 nM and an IC50 (human mGlu3) greater than 10 µM.
For `COc1cc(CN2CCc3c(-c4ccc(F)cc4Cl)cc(C(N)=O)nc3C2)ccn1` [14g], the IC50 (human mGlu2) was 87 nM and the IC50 (human mGlu3) was greater than 30 µM.
In the case of `COc1cc(CN2CCc3c(-c4ccc(O[11CH3])cc4F)cc(C(N)=O)nc3C2)ccn1` [[^11C]14a, 4-(2-fluoro-4-(methoxy-^11C)phenyl)-7-((2-methoxy-pyridin-4-yl)methyl)-5,6,7,8-tetrahydro-1,7-naphthyridine-2-carboxamide], the “Peak uptake in the striatum” value (mGlu2 [1]; SD rats, at 2.5 min) is reported as 1.7 SUV, the “Time of peak radioactivity in brain regions” value (mGlu2 [1]; SD rats, i.v.) is reported as 2.5 min and the In vivo specificity (mGlu2 [1]; pretreatment with 14a (1 mg/kg)) is reported as “low-to-modest”. The “Decrease of region-to-pons ratios under blocking” value (mGlu2 [2]) was 17-54%.
In the case of `[11CH3]Oc1ccc(C2CCN(c3ccn(CC4CC4)c(=O)c3C#N)CC2)cc1` [[^11C]CMDC, 1-(cyclopropylmethyl)-4-(4-[^11C]methoxyphenyl)-piperidin-1-yl-2-oxo-1,2-dihydropyridine-3-carbonitrile], the IC50 (mGlu2 [3]) is listed as 0.098 µM.
For `[11CH3]Oc1cccc(CC[C@@](N)(C(=O)O)[C@H]2C[C@@H]2C(=O)O)c1` [[^11C]CMG], the IC50 (mGlu2 [3]) is given as 0.094 µM.
In the case of `[11CH3]Oc1c(F)ccc(F)c1C1CCN(c2ccn3c(CC4CC4)nnc3c2Cl)CC1` [[^11C]JNJ42491293], the IC50 (mGlu2 [3]) is given as 0.0075 µM.
